Values joined by “and” are separate entries in the source; they are usually repeats but may differ in a detail not shown here. Identical values can stand only once. Blank lines part the entries; values can stand above or below the compound they belong to.
What was measured:
myocardium [1] = experiment: Tracer properties in the two-tissue compartment model (extraction, binding ratio); format: in vivo
Text: In another aspect, a flow measurement strategy incorporates knowledge of the basic properties of partially trapped tracers with a two-tissue compartment model, allowing simplifications appropriate to quantitative flow measurements. In this model the tracer can be in one of two states, either free, as the injected molecule, or bound to a receptor. In the example case of ^18F-Flurpiridaz, previous studies have shown that it binds to the mitochondrial complex I. The product of plasma concentration (Cr) and transport rate K1 is the force driving tracer from capillary plasma to the free space. Symbolically, K1 is the plasmato-tissue transport rate, FE, the product of flow F and the unidirectional capillary extraction fraction, E. k2 is a rate constant summarizing the egress from tissue to plasma. The rate constants k3 and k4 provide a summary description of binding and release of tracer. The full operational equation for the two compartment model is well known. In one aspect a focus is directed to the first few minutes after IV injection. […] Second, the ratio k3/(k2+k3), is between 0.2-0.6, meaning that after the first few minutes of scanning, about half the tracer entering the tissue space is bound and the effect of binding must be considered when interpreting the data. Third, it has been shown that at least an hour of scanning is required to obtain good estimates of all parameters. […]

myocardium [2] = experiment: Kinetic analysis of clinical 18F-Flurpiridaz rest and stress PET, two-compartment tissue model, three subjects; format: in vivo, human; parameters: unit not given here
Description: To evaluate and compare the methods proposed in this work, simulation studies were performed based on the kinetic parameters derived from human studies conducted with ^18F-Flurpiridaz, formerly known as ^18F-BMS747158-02 (Lantheus Medical Imaging, North Billerica, MA). As a pyridazinone analog, ^18F-Flurpiridaz binds to the mitochondrial complex I with high affinity. The combination of high first pass extraction and complex I binding ensure a high uptake in the myocardium with long residence time, due to the high mitochondrial density in the myocardial wall. Data from a rat model have shown that ^18F-Flurpiridaz has an extraction fraction of greater than 90% over the physiological MBF range, which makes it an attractive perfusion tracer. Validation of MBF measured with ^18F-Flurpiridaz has been performed by Nekolla et al. in pigs by comparison to microsphere and ^13N-ammonia flow measurements.
As an example case, kinetic analysis was carried out based on ^18F-Flurpiridaz clinical data. ^18F-Flurpiridaz data was used to determine the local myocardial kinetics used in the simulations. […] In these studies, rest and stress imaging sessions were separated by at least 2 h. First, the rest and stress studies for each of the subjects were analyzed separately. […] For each subject, the acquired stress images were first aligned to the images of the rest study using the nonrigid image registration tool from SPM8 9 Ashburner, J., et al., Hum. Brain Mapp 7, 254-266, 1999). The LV and RV input functions for each subject and each study were extracted with generalized factor analysis on dynamic series (GFADS) (El Fakhri, G., et al., J. Nucl. Med. 46, 1264-1271, 2005; El Fakhri, G., et al., Med. Phys. 33, 1016-1024, 2006). The LV input function was used to approximate the plasma input function. No metabolite correction was performed. Because there is a 2-h gap between the rest and stress studies, the residual myocardial activity from the first tracer is mostly tracer bound to MC 1 and is nearly unaffected by the stressor. The rest and stress image volumes of the heart were segmented into 17 standard segments. Time-activity curves were calculated for each segment. The residual activity from the rest study was estimated and subtracted from the stress time-activity curve. Then, the kinetic parameters were estimated for each segment under the resting state with its 25-min time-activity curve. k3 was fixed as 0.026 (1/min) during the curve fitting. For the time-activity curve of the stress study, only data within the first 7.5 min were used in the curve fitting. After the parameters were estimated for all 17 segments, the cardiac flow reserve (CFR=K1,s/K1,r) of each segment was calculated. For the left anterior descending (LAD) territory, the segments with the two lowest CRF values were selected and the mean of each kinetic parameter was calculated from the estimated parameters of those two segments. The same calculation was repeated for right coronary artery (RCA) and left circumflex (LCX) as well. After two segments were picked for each territory, the kinetic parameters of the other 11 segments were averaged to compute the average kinetic parameters of the normal myocardium. The computation of the kinetic parameters of the normal myocardium, LAD, LCX, and RCA territories was performed separately for each subject. Table 1 summarizes kinetic parameters K1 and k2 estimated from the clinical ^18F-Flurpiridaz studies and used for Monte Carlo simulations.

myocardium [3] = conditions: cited from earlier work
myocardium [4] = experiment: 100-min dynamic 18F-Flurpiridaz PET in cynomolgus monkey, 2-compartment model fit; format: in vivo
Text: Due to the relatively short measurements obtained in human studies, longer duration ^18F-Flurpiridaz measurements were made in a healthy 4.1-kg cynomolgus monkey. The animal was imaged under resting state and general anesthesia with 1%-2% isoflurane mixed with 100% oxygen. A 100-min dynamic ^18F-Flurpiridaz PET study, with 1.25 mCi injected dose, was acquired with a microPET P4 system from Concorde Microsystems, Inc. Images were reconstructed with filtered back-projection (FBP) into 24×5-s, 6×30-s, 5×60-s, and 18×300-s frames. The LV and RV input functions were extracted with GFADS. A region of interest was drawn over the myocardium and used to calculate the time-activity curve, which was then fitted to the standard four parameter, two-compartment model, with corrections for blood-to-tissue spillover in Eq. (3). Compartment model kinetic analysis tool (COMKAT) (Muzic Jr., R. F., et al., J. Nucl. Med. 42, 636-645, 2001; Fang, Y. H., et al., J. Nucl. Med. 51, 77-84, 2010) under MATLAB R2009a (Mathworks, Natick MA) was used to perform the nonlinear least squares for parameter estimation with the frame duration used as the statistical weight. After the kinetic parameters were estimated from the 100-min time-activity curve, the data were refit while progressively reducing the observation period. First, K1, k2, f1, and fRV were estimated as a function of study duration of the time-activity curves, ranging from 1 to 10 min. Due to the short measurement periods used, k3 and k4 were fixed to the values estimated by the 100-min data. The parameter variance of each parameter was approximated by the covariance matrix from the nonlinear least squares fitting. Then, the duration of the time-activity curve was fixed to 10 min and estimation of K1, k2, f1, and fRV was repeated with k3 fixed at values ranging from 0 to 0.1, incremented by 0.005. k4 was fixed as the value derived from fitting the 100-min data. Again, variance of each estimated parameter was approximated by the covariance matrix.
Still another aspect of the present system and methods includes ^18F-Flurpiridaz myocardial blood flow estimation using dynamic PET in non-human primates. To evaluate the parameter precision when estimating the MBF, a long dynamic study was conducted on a 4.1-kg cynomolgus monkey and the MBF precision was examined with different durations of data being used for kinetic modeling. A dynamic ^18F-Flurpiridaz imaging study was performed on a microPET P4. The animal was imaged under the resting state for 100 minutes with an injected dose of 1.25 mCi. […] The LV (FIGS. 11A-11B) and RV input function were extracted with GFADS. Time-activity curve from a region of interest drawn over the myocardium was fitted to the 2-compartment model. The estimated parameters are: K1=0.51 (SD=1.5%), k2=0.075 (SD=4.7%), k3=0.026 (SD=10.2%) and k4=0.016 (SD=10.4%). […] To evaluate the precision of K1 and k2, different study durations were used, ranging from one minute to 10 minutes to estimate K1 and k2 (with k3 and k4 fixed) as plotted for K1 in FIG. 14B.

myocardium [5] = conditions: rat model, over the physiological MBF range; cited from earlier work
mitochondrial complex I = conditions: cited from earlier work
myocardial blood flow = conditions: intravenous infusion, from start of infusion; cited from earlier work
[6] = Subject 1, LAD territory, Stress
[7] = Subject 1, LCX territory, Stress
[8] = Subject 1, Normal myocardium, Rest
[9] = Subject 1, Normal myocardium, Stress
[10] = Subject 1, RCA territory, Stress
[11] = Subject 2, LAD territory, Stress
[12] = Subject 2, LCX territory, Stress
[13] = Subject 2, Normal myocardium, Rest
[14] = Subject 2, Normal myocardium, Stress
[15] = Subject 2, RCA territory, Stress
[16] = Subject 3, LAD territory, Stress
[17] = Subject 3, LCX territory, Stress
[18] = Subject 3, Normal myocardium, Rest
[19] = Subject 3, Normal myocardium, Stress
[20] = Subject 3, RCA territory, Stress
[21] = resting state, 100 minutes of data, 1.25 mCi

ratio k3/(k2+k3) (myocardium [1]): 0.2-0.6
K1 (myocardium [2]; Subject 1, LAD territory, Rest): 0.56
k2 (myocardium [2]; Subject 1, LAD territory, Rest): 0.07
K1 (myocardium [2]; [6]): 1.04
k2 (myocardium [2]; [6]): 0.05
K1 (myocardium [2]; Subject 1, LCX territory, Rest): 0.58
k2 (myocardium [2]; Subject 1, LCX territory, Rest): 0.08
K1 (myocardium [2]; [7]): 0.99
k2 (myocardium [2]; [7]): 0.05
K1 (myocardium [2]; [8]): 0.68
k2 (myocardium [2]; [8]): 0.08
K1 (myocardium [2]; [9]): 1.96
k2 (myocardium [2]; [9]): 0.07
K1 (myocardium [2]; Subject 1, RCA territory, Rest): 0.74
k2 (myocardium [2]; Subject 1, RCA territory, Rest): 0.08
K1 (myocardium [2]; [10]): 1.26
k2 (myocardium [2]; [10]): 0.08
K1 (myocardium [2]; Subject 2, LAD territory, Rest): 0.78
k2 (myocardium [2]; Subject 2, LAD territory, Rest): 0.11
K1 (myocardium [2]; [11]): 1.60
k2 (myocardium [2]; [11]): 0.07
K1 (myocardium [2]; Subject 2, LCX territory, Rest): 0.94
k2 (myocardium [2]; Subject 2, LCX territory, Rest): 0.13
K1 (myocardium [2]; [12]): 2.10
k2 (myocardium [2]; [12]): 0.10
K1 (myocardium [2]; [13]): 0.738 and 0.74
k2 (myocardium [2]; [13]): 0.108 and 0.11
K1 (myocardium [2]; [14]): 2.292 and 2.29
k2 (myocardium [2]; [14]): 0.118 and 0.12
K1 (myocardium [2]; Subject 2, RCA territory, Rest): 0.68
k2 (myocardium [2]; Subject 2, RCA territory, Rest): 0.08
K1 (myocardium [2]; [15]): 1.43
k2 (myocardium [2]; [15]): 0.11
K1 (myocardium [2]; Subject 3, LAD territory, Rest): 0.64
k2 (myocardium [2]; Subject 3, LAD territory, Rest): 0.04
K1 (myocardium [2]; [16]): 1.58
k2 (myocardium [2]; [16]): 0.18
K1 (myocardium [2]; Subject 3, LCX territory, Rest): 0.69
k2 (myocardium [2]; Subject 3, LCX territory, Rest): 0.05
K1 (myocardium [2]; [17]): 1.61
k2 (myocardium [2]; [17]): 0.24
K1 (myocardium [2]; [18]): 0.60
k2 (myocardium [2]; [18]): 0.05
K1 (myocardium [2]; [19]): 2.09
k2 (myocardium [2]; [19]): 0.23
K1 (myocardium [2]; Subject 3, RCA territory, Rest): 0.58
k2 (myocardium [2]; Subject 3, RCA territory, Rest): 0.03
K1 (myocardium [2]; [20]): 0.68
k2 (myocardium [2]; [20]): 0.17
estimated K1 as a function of the nominal value of k3 (myocardium [4]; rest state, k3 fixed at values between 0 and 0.1 min^-1 (FIG. 2B)): 0.498 to 0.507
K1 (myocardium [4]; [21]): 0.51 (SD=1.5%)
k2 (myocardium [4]; [21]): 0.075 (SD=4.7%)
k3 (myocardium [4]; [21]): 0.026 (SD=10.2%)
k4 (myocardium [4]; [21]): 0.016 (SD=10.4%)
Structure (SMILES): CC(C)(C)n1ncc(OCc2ccc(COCCF)cc2)c(Cl)c1=O [18F-Flurpiridaz]
unidirectional extraction fraction (myocardium [3]; at all physiological flow rates): greater than 90%
first-pass extraction (myocardium [3]; in the coronary circulation): nearly complete
extraction fraction (myocardium [5]): greater than 90%
binding to mitochondrial complex I (mitochondrial complex I): high affinity

Structure (SMILES): Nc1ncnc2c1ncn2[C@@H]1O[C@H](CO)[C@@H](O)[C@H]1O [adenosine]
time to reach the peak hyperemia (myocardial blood flow): 1.5 min

Structure (SMILES): OCCN(CCO)c1nc(N2CCCCC2)c2nc(N(CCO)CCO)nc(N3CCCCC3)c2n1 [dipyridamole]
time to reach the peak hyperemia (myocardial blood flow): 6.5 min

From patent publication US12551173B2, “System and method for single-scan rest-stress cardiac PET” (The General Hospital Corporation, priority 2012, dated 2026)
